# Measurements taken from patent US20050118290A1, “Compositions and method for treatment of steroid/nuclear receptor-mediated diseases” (University of Singapore, priority 2003, published 2005).
# Columns and labels:
# Format in all cases: cell-based
# [1] = target: T1, human estrogen receptor ERα (Homo sapiens, UniProt P03372); experiment: ERα MMTV-ERE-LUC reporter gene assay in HeLa cells
# T1 construct: expressed in transfected cells; host or cells: HeLa
# T1 sequence (P03372 1-595): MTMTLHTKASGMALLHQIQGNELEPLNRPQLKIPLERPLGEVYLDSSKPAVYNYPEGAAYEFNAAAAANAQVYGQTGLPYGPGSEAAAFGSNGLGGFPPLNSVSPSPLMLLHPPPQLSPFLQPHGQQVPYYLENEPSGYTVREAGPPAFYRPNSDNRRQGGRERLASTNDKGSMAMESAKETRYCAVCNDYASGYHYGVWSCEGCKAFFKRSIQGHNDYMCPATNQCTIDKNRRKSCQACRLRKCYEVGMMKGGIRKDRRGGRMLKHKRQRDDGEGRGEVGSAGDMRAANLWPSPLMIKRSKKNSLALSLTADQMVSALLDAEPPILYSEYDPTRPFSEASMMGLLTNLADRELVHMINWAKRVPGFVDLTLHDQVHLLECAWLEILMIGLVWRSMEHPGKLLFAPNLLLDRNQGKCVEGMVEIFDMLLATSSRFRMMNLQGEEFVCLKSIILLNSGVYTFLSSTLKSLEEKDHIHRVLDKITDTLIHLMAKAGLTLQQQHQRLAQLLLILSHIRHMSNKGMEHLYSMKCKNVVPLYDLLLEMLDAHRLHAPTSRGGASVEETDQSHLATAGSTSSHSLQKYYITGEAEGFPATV
# Protocol: (§1) ERα and ERβ activity were assayed using plasmids encoding either ERα or ERβ co-transfected with the ERE-LUC reporter gene. To assay estrogen receptor agonist activity, HeLa cells were transiently co-transfected with two plasmids (Tcherepanova, et al., 2000) using Lipofectamine. The first plasmid comprised DNA encoding human estrogen receptor (either ERα or ERβ), and the second plasmid comprised an estrogen-driven reporter system comprising: a luciferase reporter gene (LUC) whose transcription is under the control of upstream regulatory elements comprising 4 copies of the vitellogenin estrogen response element (ERE) cloned into the Mouse Mammary Tumor Virus (MMTV) promoter (the full name of the reporter system being ‘MMTV-ERE-LUC’).
# (§2) AR, PR, GR and ERα and […] were determined by comparing luciferase activity in test cells with control cells exposed to vehicle (i.e., ethanol or methanol) only, analogous to the determination of PPAR activity as described in the previous examples.
# PPARα = target: T2, PPARα (Homo sapiens, UniProt Q07869); experiment: Chimeric Gal4DBD-PPARαLBD receptor / UASg-luciferase reporter gene assay in HeLa cells
# T2 construct: expressed in transfected cells; host or cells: HeLa
# T2 sequence (Q07869 239-466 limits assumed): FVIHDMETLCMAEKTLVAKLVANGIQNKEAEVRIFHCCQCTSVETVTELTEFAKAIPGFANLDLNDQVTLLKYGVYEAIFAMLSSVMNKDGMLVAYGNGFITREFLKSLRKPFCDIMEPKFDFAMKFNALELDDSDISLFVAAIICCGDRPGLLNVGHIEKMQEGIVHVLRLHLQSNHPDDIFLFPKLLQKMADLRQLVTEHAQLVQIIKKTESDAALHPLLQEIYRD
# Text: (§3) In an example of such a reporter gene assay, a plasmid containing chimeric Ga14DBD-PPARLBD receptor cDNA was constructed by excising the ligand binding domain (LBD) of full length PPARγ and PPARα and ligating the resulting fragments in frame to the Ga14-DNA binding domain (DBD) of Saccharomyces cerevisiae in a pM vector (Clontech). Specifically, to construct Ga14DBD-PPARγLBD plasmid, pSG5 expression vector (Stratagene) containing full length PPARγ was excised with Rsa I and blunt ligated to Hind III site of pMGa14DBD expression plasmid (Clontech). To construct Ga14DBD-PPARαLBD plasmid, pSG5 expression vector (Stratagene) containing full length PPARα was excised with BstU I and BamH I and blunt-end ligated in frame to BamH I site of pMGa14DBD expression plasmid (Clontech). […] Ga14 DBD binds very strongly to the exogenous UASg promoter, thereby giving rise to a sensitive and specific assay. To measure PPARγ and PPARα agonist activity, HeLa cells were grown in 24-well microtiter plates and then transiently co-transfected with the two plasmids (chimeric PPAR receptor and UASg reporter gene) using Lipofectamine (Invitrogen). […] Concurrently, cells exposed to known PPAR ligands served as positive controls. Replicate wells, exposed to the vehicle solvent (i.e., ethanol or methanol) in which herbal extracts were dissolved, were used as negative controls. After the 40 hr incubation period, cells were rinsed with phosphate buffered saline (PBS), lysis buffer was added, and cell lysates were collected for measurement of luciferase activity using a luminometer. […] All data points are in triplicate. The data points represent the mean of triplicate wells. Luciferase activity in such an assay accurately reflects the activity of any ligands on PPARγ or PPARα.
# Progesterone Receptor = target: T3, Progesterone Receptor (Homo sapiens, UniProt P06401); experiment: PR (ARE)2-Luc luciferase reporter gene assay; settings: with progesterone 10×10^−6M
# T3 construct: expressed in transfected cells; host or cells: HeLa (named for the formononetin and daidzein experiments)
# T3 sequence (P06401 1-933): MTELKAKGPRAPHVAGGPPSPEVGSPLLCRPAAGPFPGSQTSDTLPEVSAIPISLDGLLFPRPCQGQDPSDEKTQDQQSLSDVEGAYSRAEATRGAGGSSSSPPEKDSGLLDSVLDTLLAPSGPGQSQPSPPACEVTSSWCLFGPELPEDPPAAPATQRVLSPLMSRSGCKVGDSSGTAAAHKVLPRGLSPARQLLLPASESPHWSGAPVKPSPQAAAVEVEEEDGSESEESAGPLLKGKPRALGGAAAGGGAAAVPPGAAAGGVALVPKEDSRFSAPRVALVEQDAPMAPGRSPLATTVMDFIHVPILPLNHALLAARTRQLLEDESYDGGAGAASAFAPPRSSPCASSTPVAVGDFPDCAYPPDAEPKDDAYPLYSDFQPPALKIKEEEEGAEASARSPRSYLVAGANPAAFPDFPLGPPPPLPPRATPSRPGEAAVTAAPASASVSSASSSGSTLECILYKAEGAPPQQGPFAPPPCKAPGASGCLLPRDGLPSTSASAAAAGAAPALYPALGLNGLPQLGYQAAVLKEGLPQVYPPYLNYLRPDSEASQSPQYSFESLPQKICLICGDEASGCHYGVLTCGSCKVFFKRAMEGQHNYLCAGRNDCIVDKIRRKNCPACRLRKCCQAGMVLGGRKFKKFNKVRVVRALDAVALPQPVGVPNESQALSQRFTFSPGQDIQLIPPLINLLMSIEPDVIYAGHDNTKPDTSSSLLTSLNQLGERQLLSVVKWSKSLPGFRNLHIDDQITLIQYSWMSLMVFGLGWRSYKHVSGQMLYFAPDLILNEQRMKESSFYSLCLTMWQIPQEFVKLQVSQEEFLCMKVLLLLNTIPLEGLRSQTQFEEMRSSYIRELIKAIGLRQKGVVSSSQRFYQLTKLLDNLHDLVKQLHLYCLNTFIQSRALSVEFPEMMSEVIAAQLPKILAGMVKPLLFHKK
# Protocol: (§4) The capacity of HQ extract to activate other steroid receptors, namely AR, PR, GR, ERα and ERβ was examined. […] The (ARE)2-Luc plasmid consist of two repeats of Androgen Response Element (ARE) cloned upstream of the Luciferase Reporter gene in a pGL3-Basic vector (Promega).
# as §2
# [2] = target: T4, human estrogen receptor ERβ (Homo sapiens, UniProt Q92731); experiment: ERβ MMTV-ERE-LUC reporter gene assay in HeLa cells
# T4 construct: expressed in transfected cells; host or cells: HeLa
# T4 sequence (Q92731 whole entry): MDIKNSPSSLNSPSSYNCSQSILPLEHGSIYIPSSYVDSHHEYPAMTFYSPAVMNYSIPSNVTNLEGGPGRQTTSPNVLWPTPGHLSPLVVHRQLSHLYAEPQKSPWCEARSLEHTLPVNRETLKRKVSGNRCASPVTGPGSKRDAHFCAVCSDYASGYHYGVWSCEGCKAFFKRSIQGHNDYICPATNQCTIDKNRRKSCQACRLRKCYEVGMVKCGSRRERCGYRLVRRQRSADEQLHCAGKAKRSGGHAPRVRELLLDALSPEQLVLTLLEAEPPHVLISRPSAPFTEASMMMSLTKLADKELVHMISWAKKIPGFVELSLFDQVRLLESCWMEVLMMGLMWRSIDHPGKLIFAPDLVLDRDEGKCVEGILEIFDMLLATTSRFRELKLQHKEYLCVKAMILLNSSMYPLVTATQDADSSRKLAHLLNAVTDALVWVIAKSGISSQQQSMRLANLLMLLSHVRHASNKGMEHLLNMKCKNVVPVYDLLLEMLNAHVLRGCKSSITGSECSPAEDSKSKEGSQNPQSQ
# Protocol: as §1, §2
# PPARγ = target: T5, PPARγ (Homo sapiens, UniProt P37231); experiment: Chimeric Gal4DBD-PPARγLBD receptor / UASg-luciferase reporter gene assay in HeLa cells
# T5 construct: expressed in transfected cells; host or cells: HeLa
# T5 sequence (P37231 238-503 limits assumed): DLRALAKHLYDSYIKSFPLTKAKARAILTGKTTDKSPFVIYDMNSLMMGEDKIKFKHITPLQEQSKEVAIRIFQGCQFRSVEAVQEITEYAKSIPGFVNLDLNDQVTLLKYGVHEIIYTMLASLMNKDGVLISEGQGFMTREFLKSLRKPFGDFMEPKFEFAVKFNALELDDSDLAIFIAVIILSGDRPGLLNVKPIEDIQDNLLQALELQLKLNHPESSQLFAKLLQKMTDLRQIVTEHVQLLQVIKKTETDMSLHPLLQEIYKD
# Text: as §3
# Glucocorticoid Receptor = target: T6, Glucocorticoid Receptor (Homo sapiens, UniProt P04150); experiment: GR (ARE)2-Luc luciferase reporter gene assay; settings: HQ extract 0 ×10^−6 g/mL (hormone only)
# T6 construct: expressed in transfected cells
# T6 sequence (P04150 1-777): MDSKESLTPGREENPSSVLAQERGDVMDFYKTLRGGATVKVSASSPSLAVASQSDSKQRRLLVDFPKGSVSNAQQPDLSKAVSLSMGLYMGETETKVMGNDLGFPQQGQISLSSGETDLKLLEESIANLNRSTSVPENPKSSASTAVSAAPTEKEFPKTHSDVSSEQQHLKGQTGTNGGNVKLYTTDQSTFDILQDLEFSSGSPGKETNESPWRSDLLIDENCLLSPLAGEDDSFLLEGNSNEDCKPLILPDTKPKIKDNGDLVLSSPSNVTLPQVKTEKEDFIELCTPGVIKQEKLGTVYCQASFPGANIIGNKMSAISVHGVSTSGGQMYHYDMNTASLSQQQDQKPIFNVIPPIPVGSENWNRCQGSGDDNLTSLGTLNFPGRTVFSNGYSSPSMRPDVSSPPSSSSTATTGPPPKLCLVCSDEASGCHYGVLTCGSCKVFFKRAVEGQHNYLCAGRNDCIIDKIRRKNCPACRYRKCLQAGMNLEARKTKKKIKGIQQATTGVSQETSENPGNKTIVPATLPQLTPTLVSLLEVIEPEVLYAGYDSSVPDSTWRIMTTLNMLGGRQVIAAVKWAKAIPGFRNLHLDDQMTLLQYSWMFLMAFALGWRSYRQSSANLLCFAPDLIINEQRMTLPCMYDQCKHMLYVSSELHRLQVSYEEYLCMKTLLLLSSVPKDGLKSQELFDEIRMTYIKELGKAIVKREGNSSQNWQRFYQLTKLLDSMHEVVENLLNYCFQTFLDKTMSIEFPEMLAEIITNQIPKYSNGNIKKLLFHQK
# Protocol: as §4, §2
increase of the activity of maximal doses of estradiol on ERα ([1]; with estradiol 1×10^−9M),"increase of PPARα activity, up to (PPARα; Table 8)",increase of the activity of maximal doses of PPARα agonist (PPARα; with WY14643 30×10^−6M),increase of the activity of maximal doses of PR agonist (Progesterone Receptor),ERβ activity comparable to % maximal activity of Estradiol ([2]; 30×10^−6 g/ml),"increase of PPARγ activity, up to (PPARγ; Table 8)",Compound,ERα activity comparable to % maximal activity of Estradiol ([1]; 30×10^−6 g/ml),effect on ERβ activity of estradiol ([2]; 1 to 30×10^−6 g/mL + estradiol 1×10^−9M),PPARγ activity when added to pioglitazone compared with pioglitazone alone (PPARγ; 3 to 30 ×10^−6 g/mL + pioglitazone 30×10^−6M),Luciferase activity (Fold ± SE) Glucocorticoid Receptor/Hydrocortisone (1 × 10^−9 M) (Glucocorticoid Receptor)
3.2 fold,≤ 10 fold,4.4 fold,1.8 fold,~400%,up to 6 fold,"COc1ccc(-c2coc3cc(O)ccc3c2=O)cc1 [formononetin, 7-Hydroxy-4′-methoxyisoflavone]",comparable to maximal activity of Estradiol,did not inhibit or augment the activity of estradiol alone,no different than that observed with pioglitazone alone,
,,,,,,"C[C@]12CCC(=O)C=C1CC[C@@H]1[C@@H]2[C@@H](O)C[C@@]2(C)[C@H]1CC[C@]2(O)C(=O)CO [Hydrocortisone, hydrocortisone]",,,,11014 ± 285 Fold
